According to patent US8592456B2 (4SC Discovery GmbH, priority 2011, dated 2013):
Read-outs that look alike come from different tables or passages of the source.

How the values were obtained:
Type in all cases: cell-based
IL-17FF = IL-17FF production by PHA-stimulated human PBMC (IL-17F ELISA)
Protocol: (§1) Analysis of Proliferation of and Cytokine Production by Human PBMC Stimulated with PHA
(§2) Peripheral blood mononuclear cells (PBMC) from healthy human donors were purified using Accuspin™ System-Histopaque-1077 (Sigma) according to the protocol recommended by the manufacturer. Purified PBMC were then washed twice with phosphate-buffered saline (PBS) and resuspended in RPMI1640 culture medium supplemented with 10% dialyzed heat inactivated fetal calf serum, 1.5 mM L-glutamine, 100 U penicillin/ml, and […] (all from PAN Biotech, Aidenbach, Germany). For stimulation, PBMC were seeded at 1×10^5 cells/well, activated with 2 μg/ml phytohaemagglutinin (PHA, Sigma) and incubated with the test compounds for 48 hours. IL-17A, IL-17F and INF-γ were then determined in the culture supernatant using a Luminex BioPlex system, following the manufacturer's instructions (BioRad, Munich, Germany). For screening, compounds were used at 10, 1, 0.1 and 0.01 μM. To determine the IC50, compounds were titrated semilogarithmically.
(§3) Cytokines were determined in the aforementioned culture supernatant using the following methods: IL-17AA/AF was measured using the Luminex BioPlex system (BioRad, Munich, Germany); IL-17AA using the human homodimer IL-17A ELISA Ready Set Go Kit from eBioscience (Frankfurt, Germany); IL-17FF using the human IL-17F ELI-Pair from Hölzel DiagnosticaGmBH (Köln, Germany); and IFN-γ using the OptElA human IFN-g ELISA from BD Bioscience (Heidelberg, Germany), all following the manufacturer's instructions.

IFNγ = assay: IFN-γ production by PHA-stimulated human PBMC (IFN-g ELISA); conditions: 48 h
Protocol: as §1
as §2, with “For stimulation, PBMC were seeded at 1×10^5 cells/well, activated with 2 μg/ml phytohaemagglutinin (PHA, Sigma) and incubated with the test compounds for 48 hours.” left out, “For screening, compounds were used at 10, 1, 0.1 and 0.01 μM. To determine the IC50, compounds were titrated semilogarithmically.” left out
as §3

[1] = tested on: PBMC (T cell proliferation); assay: T cell proliferation assay, PHA-stimulated human PBMC (BrdU ELISA)
Method in brief: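 BrdU ELISA readout of proliferation at 48 hours. Cells: human PBMC from healthy donors in 10% dialyzed FCS/RPMI1640, 1×10^5 per well, activated by 2 μg/ml phytohaemagglutinin in the presence of compound.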

[2] = Homo sapiens, 48 h, read-out: IC50 (Tcell proliferation)

`Cc1csc(-c2c(-c3c(F)cccc3Cl)noc2-c2cnn(-c3cccc(Cl)c3)c2C(F)(F)F)n1` [Example I-4] was tested, and the IC50 (IL-17FF; Homo sapiens, PBMC, 48 h, read-out: IC50 (IL-17FF)) was under 10 nM, the IC50 (IFNγ; read-out: IC50 (IFNγ)) was under 10 nM and the IC50 [1, 2] was under 10 nM.

Molecule `CCOC(=O)c1c(-c2c(F)cccc2Cl)noc1-c1cnn(-c2ccccc2Cl)c1C(F)(F)F` [Example B-33, ethyl 3-(2-chloro-6-fluorophenyl)-5-(1-(2-chlorophenyl)-5-(trifluoromethyl)-1H-pyrazol-4-yl)isoxazole-4-carboxylate] has an IC50 (IL-17FF; Homo sapiens, PBMC, 48 h, read-out: B: IC50 (IL-17FF)) of 100 to 1000 nM, an IC50 (IFNγ; read-out: C: IC50 (IFNγ)) of 100 to 1000 nM and an IC50 ([1]; Homo sapiens, 48 h, read-out: D: IC50 (Tcell proliferation)) of 100 to 1000 nM.

`O=C(O)c1c(-c2c(F)cccc2Cl)noc1-c1cnn(-c2cccc(Cl)c2)c1C(F)(F)F` [Example B-18, 3-(2-chloro-6-fluorophenyl)-5-(1-(3-chlorophenyl)-5-(trifluoromethyl)-1H-pyrazol-4-yl)isoxazole-4-carboxylic acid] was tested, and the IC50 (IL-17FF; human PBMC, 2 μg/ml PHA, 48 hours, read-out: B: IC50 (IL-17FF)) was 1000 to 10000 nM.

Molecule `Fc1ccccc1-n1ncc(-c2onc(-c3c(F)cccc3Cl)c2-c2nccs2)c1C(F)(F)F` [IB-30, 3-(2-chloro-6-fluorophenyl)-5-(1-(2-fluorophenyl)-5-(trifluoromethyl)-1H-pyrazol-4-yl)-4-(thiazol-2-yl)isoxazole] has an IC50 ([1]; PHA-stimulated human PBMC, 48 hours, BrdU, column D, activity classes 1-4, read-out: IC50 (Tcell proliferation)) of 10 to 100 nM.

Molecule `CC(=O)Nc1cccc(-n2ncc(-c3onc(-c4c(F)cccc4Cl)c3-c3nnc(C)s3)c2C(F)(F)F)c1` [IB-12, N-(3-(4-(3-(2-chloro-6-fluorophenyl)-4-(5-methyl-1,3,4-thiadiazol-2-yl)isoxazol-5-yl)-5-(trifluoromethyl)-1H-pyrazol-1-yl)phenyl)acetamide] has an IC50 [1, 2] of 1000 to 10000 nM.

`CCOC(=O)c1c(-c2c(F)cccc2Cl)noc1-c1cnn(-c2ccccn2)c1C(F)(F)F` [Example B-84, ethyl 3-(2-chloro-6-fluorophenyl)-5-(1-(pyridin-2-yl)-5-(trifluoromethyl)-1H-pyrazol-4-yl)isoxazole-4-carboxylate] gave an IC50 ([1]; human PBMC, 2 μg/ml PHA, 48 hours, BrdU, read-out: D: IC50 (Tcell proliferation)) of under 10 nM.
